The source made the active and inactive calls. The rule behind the calls is not given here.
The compounds below were run against Ubiquitin-conjugating enzyme E2 N (Homo sapiens) (UniProt P61088) (assay: NMR detection of UBE2N ligand binding – biophysical, purified protein (AID 1552)). Details: NMR binding to purified UBE2N.
Chain of Ubiquitin-conjugating enzyme E2 N (Homo sapiens) (P61088 whole entry, looked up): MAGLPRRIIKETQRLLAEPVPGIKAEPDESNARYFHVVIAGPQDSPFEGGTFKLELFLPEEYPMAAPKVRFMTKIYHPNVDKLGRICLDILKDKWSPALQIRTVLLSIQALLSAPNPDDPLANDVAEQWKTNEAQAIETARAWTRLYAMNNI
For `Cc1cc(Cl)ccc1NC(=O)C(N)=O`, the Kd was > 4 mM (inactive).
For `CC(C)=CC1C(CO)C1(C)C` (configuration not stated), the Kd was > 4 mM (inactive).
`Cc1nc2ccccc2c(=O)n1-c1cccc(O)c1` was tested, and the Kd was > 4 mM (inactive).
`OC(CCl)c1ccc(-n2cncn2)cc1` (configuration not stated) was tested, and the Kd was > 4 mM (inactive).
In the case of `c1csc(-c2nnc3ccccn23)c1`, the Kd is reported as > 4 mM (inactive).
`O=C(NC1CCS(=O)(=O)C1)c1cccs1` (configuration not stated) was tested, and the Kd was > 4 mM (inactive).
With `COc1ccccc1/C=C/CN1CCOCC1` the Kd was > 4 mM (inactive).
For `C=C1C2CC[C@@]3(C)[C@H](c4ccoc4)OC(=O)C[C@]13O[C@H]1CC(=O)C(C)(C)[C@H](C(O)C(=O)OC)[C@@]21C` (some centres not stated), the Kd was > 4 mM (inactive).
For `O=C(CC1CCCCC1)N1CCN(c2ccccn2)CC1`, the Kd was > 4 mM (inactive).
In the case of `CSc1nc(NC(C)C)nc(N2CCOCC2)n1`, the Kd is reported as > 4 mM (inactive).
`O=C1C2C3C=CC(C3)C2C(=O)N1c1cccnc1` (configuration not stated) was tested, and the Kd was > 4 mM (inactive).
With `N/N=C1\CCCc2c1no[n+]2[O-]` the Kd was > 4 mM (inactive).
With `CC(C)CCCC(C)C1CCC2C3=CC[C@H]4C[C@@H](O)CC[C@]4(C)C3CC[C@@]21C` (some centres not stated) the Kd was > 4 mM (inactive).
`O=C1CCCc2c(O)cccc21` was tested, and the Kd was > 4 mM (inactive).
With `CC(=O)c1c(O)n(C)c(=S)n(C)c1=O` the Kd was > 4 mM (inactive).
In the case of `CCOC(=O)N1CCN(c2ncnc3c2cnn3C)CC1`, the Kd is reported as > 4 mM (inactive).
For `Cc1cc(C)n(S(=O)(=O)c2cc(C)c(C)cc2C)n1`, the Kd was > 4 mM (inactive).
With `Cc1ccnc(NS(=O)(=O)c2cccs2)c1` the Kd was > 4 mM (inactive).
With `O=C(Cc1cccs1)Nc1ccccn1` the Kd was > 4 mM (inactive).
For `Cn1c(=O)[nH]c2nc[nH]c2c1=O`, the Kd was > 4 mM (inactive).
With `NCc1ccc2c(c1)OCCO2` the Kd was > 4 mM (inactive).
In the case of `Cc1noc(C)c1C(=O)Nc1ccccc1-c1ccccc1`, the Kd is reported as > 4 mM (inactive).
For `COc1ccc(C(=O)NCC(=O)O)cc1`, the Kd was > 4 mM (inactive).
For `Cc1cccc(N2C(=O)CCC2=O)n1`, the Kd was > 4 mM (inactive).
`NC(=O)CSc1nc2ccccc2[nH]1` was tested, and the Kd was > 4 mM (inactive).
With `NCc1ccc2c(c1)OCO2` the Kd was > 4 mM (inactive).
`c1ccc(CCc2nc(-c3ccncc3)no2)cc1` was tested, and the Kd was > 4 mM (inactive).
For `Cc1nc(N)sc1C(=O)Nc1nccs1`, the Kd was > 4 mM (inactive).
For `Cc1cccc(NC(=O)c2ccccc2C(=O)O)c1`, the Kd was > 4 mM (inactive).
In the case of `CCCS(=O)(=O)N1CCN(c2ccccn2)CC1`, the Kd is reported as > 4 mM (inactive).
With `c1cc2n(c1)CCNC2c1ccncc1` (configuration not stated) the Kd was > 4 mM (inactive).
With `CC(=O)O[C@H]1CC[C@@]2(C)C(C[C@@H](OC(C)=O)[C@@]3(C)C4=CC(=O)O[C@@H](c5ccoc5)[C@]4(C)CCC23)C1(C)C` (some centres not stated) the Kd was > 4 mM (inactive).
`CNC(=S)Nc1ccc2c(c1)OCO2` was tested, and the Kd was > 4 mM (inactive).
`CC(=O)NC(=S)Nc1nc2ccccc2n1C(C)=O` was tested, and the Kd was > 4 mM (inactive).
For `Cn1cnnc1SCC(=O)Nc1ccccc1`, the Kd was > 4 mM (inactive).
`Cc1cc(C)n(-c2nncn2N)n1` was tested, and the Kd was > 4 mM (inactive).
With `O=C(c1ccco1)N1CCN(c2ccc(Cl)cc2)CC1` the Kd was > 4 mM (inactive).
With `Cc1sc2nc(NCCO)[nH]c(=O)c2c1C` the Kd was > 4 mM (inactive).
`NC(=O)C(=O)NCc1ccc(Cl)cc1` was tested, and the Kd was > 4 mM (inactive).
For `CCc1ccccc1OCc1nnc(N)s1`, the Kd was > 4 mM (inactive).
In the case of `CCc1c(C(=O)N2CCOCC2)csc1C`, the Kd is reported as > 4 mM (inactive).
With `CN1CCN(C2CCN(Cc3ccccc3)CC2)CC1` the Kd was > 4 mM (inactive).
In the case of `CC(=O)Nc1ccc(-c2ccc3nncn3n2)cc1`, the Kd is reported as > 4 mM (inactive).
For `S=C1NC(=S)NC(c2ccc3c(c2)OCO3)N1`, the Kd was > 4 mM (inactive).
For `Cc1c(C(=O)NCc2ccccn2)oc2ccccc12`, the Kd was > 4 mM (inactive).
With `O=C1NC(=Nc2ccc(O)cc2)S/C1=C/c1ccco1` the Kd was > 4 mM (inactive).
For `Cc1cccc(-c2nnc(-c3ccc(N)cc3)o2)c1`, the Kd was > 4 mM (inactive).
`CC(=O)Nc1ccc(S(=O)(=O)N(C)C)cc1` was tested, and the Kd was > 4 mM (inactive).
`COc1cc(/C=C/C(=O)O)cc(OC)c1OC` was tested, and the Kd was > 4 mM (inactive).
For `O=C1C2C3C=CC(C3)C2C(=O)N1CCCO` (configuration not stated), the Kd was > 4 mM (inactive).
In the case of `Oc1ccc(C(=S)N2CCCCC2)cc1Cl`, the Kd is reported as > 4 mM (inactive).
For `COC(=O)c1ccc(C(=S)N2CCOCC2)cc1`, the Kd was > 4 mM (inactive).
With `O=C1c2cccc3cc(S(=O)(=O)O)cc(c23)C(=O)N1O` the Kd was > 4 mM (inactive).
In the case of `OCc1ccc2nonc2c1`, the Kd is reported as > 4 mM (inactive).
For `CC(=O)c1c(C)n(O)c2ccc3nonc3c12`, the Kd was > 4 mM (inactive).
`CCSc1nc(N)c(NC(=O)c2ccco2)c(=O)[nH]1` was tested, and the Kd was > 4 mM (inactive).
`O=C(NC1CSCC1O)c1ccccc1` (configuration not stated) was tested, and the Kd was > 4 mM (inactive).
In the case of `Oc1ccccc1-c1nnco1`, the Kd is reported as > 4 mM (inactive).
With `CCN1CCC2(CC1)CC1CC3C=CC1(CN2C(C)=O)O3` (configuration not stated) the Kd was > 4 mM (inactive).
For `O=C1CS/C(=N/N=C/c2cccs2)N1`, the Kd was > 4 mM (inactive).
`Cc1cc(C)nc(N(C#N)Cc2ccccc2)n1` was tested, and the Kd was > 4 mM (inactive).
For `OC12C=CC(CC1)CC2`, the Kd was > 4 mM (inactive).

Source: PubChem BioAssay AID1552 (Sanford-Burnham Center for Chemical Genomics, 2009)
